Results on 7 molecules are retold here after ChEMBL document CHEMBL6083239, “Synthesis, optimization and antitumor activity evaluation of sulfonyl benzoyl hydrazide derivatives as novel human LSD1 inhibitors” (Bioorg Med Chem Lett, 2024).

The test system of one data set is MCF7. Put plainly: cells. As to conditions: Homo sapiens; call rule not given here.
Data set [1] has as its system HCT-116. As to the kind of experiment: Antiproliferative activity against human HCT-116 cells by MTT assay.
Another data set deals with A2780. Put plainly: Antiproliferative activity against human A2780 cells by MTT assay.
For another data set, the system named is DU-145. As to the kind of experiment: Antiproliferative activity against human DU-145 cells by MTT assay.
The next data set relates to MDA-MB-231. Put plainly: cells. The following applies: Homo sapiens.
A further data set relates to A549. As to the kind of experiment: cells. The following applies: Homo sapiens.
Data set [2] in a line: Solubility of compound. Format: physicochemical.
Data set [3] has as its system HCT-116. Put plainly: Induction of cell cycle arrest in human HCT-116 cells assessed as increase in S-phase cells at 0.5 uM. Format: functional.
The test system of data set [4] is HCT-116. Put plainly: Induction of apoptosis in human HCT-116 cells assessed as necrotic cells at 2 uM by Annexin V-FITC/PI staining based assay (reference value: 1.05%). Format: functional.
Data set [5] concerns HCT-116. Put plainly: Induction of apoptosis in human HCT-116 cells assessed as early apoptotic cells at 1 uM by Annexin V-FITC/PI staining based assay (reference value: 1.82%). Type of data set: functional.
The subject of data set [6] is HCT-116. Put plainly: Induction of apoptosis in human HCT-116 cells assessed as late apoptotic cells at 0.5 uM by Annexin V-FITC/PI staining based assay (reference value: 0.37%). Format: functional.
For data set [7], the system named is HCT-116. As to the kind of experiment: Induction of apoptosis in human HCT-116 cells assessed as viable cells at 0.5 uM by Annexin V-FITC/PI staining based assay (reference value: 96.76%). As to conditions: read-out: Activity. Format: functional.
For data set [8], the system named is HCT-116. Put plainly: Induction of apoptosis in human HCT-116 cells assessed as viable cells at 2 uM by Annexin V-FITC/PI staining based assay (reference value: 96.76%). Type of data set: functional. The following applies: read-out: Activity.
Data set [9] relates to HCT-116. As to the kind of experiment: Induction of apoptosis in human HCT-116 cells assessed as late apoptotic cells at 2 uM by Annexin V-FITC/PI staining based assay (reference value: 0.37%). Format: functional.
Data set [10] has as its system HCT-116. As to the kind of experiment: Induction of apoptosis in human HCT-116 cells assessed as viable cells at 1 uM by Annexin V-FITC/PI staining based assay (reference value: 96.76%). The following applies: read-out: Activity. Format: functional.
Data set [11] relates to HCT-116. As to the kind of experiment: Induction of apoptosis in human HCT-116 cells assessed as early apoptotic cells at 0.5 uM by Annexin V-FITC/PI staining based assay (reference value: 1.82%). Type of data set: functional.
Data set [12] relates to HCT-116. Put plainly: Induction of apoptosis in human HCT-116 cells assessed as necrotic cells at 1 uM by Annexin V-FITC/PI staining based assay (reference value: 1.05%). Format: functional.
The test system of data set [13] is HCT-116. Put plainly: Induction of apoptosis in human HCT-116 cells assessed as early apoptotic cells at 2 uM by Annexin V-FITC/PI staining based assay (reference value: 1.82%). Type of data set: functional.
Data set [14] relates to HCT-116. As to the kind of experiment: Induction of apoptosis in human HCT-116 cells assessed as necrotic cells at 0.5 uM by Annexin V-FITC/PI staining based assay (reference value: 1.05%). Format: functional.
The test system of data set [15] is HCT-116. Put plainly: Induction of apoptosis in human HCT-116 cells assessed as late apoptotic cells at 1 uM by Annexin V-FITC/PI staining based assay (reference value: 0.37%). Format: functional.
In data set [16] the test system is HCT-116. As to the kind of experiment: Induction of cell cycle arrest in human HCT-116 cells assessed as increase in S-phase cells. Format: functional, cell-based.
The test system of data set [17] is HCT-116. Put plainly: Upregulation of H3K4me2 expression in human HCT-116 cells at 0.125 to 0.5 uM. Format: functional, cell-based. As to conditions: dose 0.125-0.5 µM.
The subject of data set [18] is HCT-116. As to the kind of experiment: Induction of apoptosis in human HCT-116 cells assessed as viable cells at 0.125 uM by Annexin V-FITC/PI staining based assay (reference value: 96.76%). Type of data set: functional. The following applies: read-out: Activity.
Data set [19] concerns HCT-116. Put plainly: Induction of apoptosis in human HCT-116 cells assessed as late apoptotic cells at 0.25 uM by Annexin V-FITC/PI staining based assay (reference value: 0.37%). Format: functional.
The test system of data set [20] is HCT-116. Put plainly: Antiproliferative activity against human HCT-116 cells assessed as reduction in EdU positive cells at 0.25 uM. Type of data set: functional, cell-based.
The subject of data set [21] is HCT-116. As to the kind of experiment: Induction of apoptosis in human HCT-116 cells assessed as necrotic cells at 0.25 uM by Annexin V-FITC/PI staining based assay (reference value: 1.05%). Type of data set: functional.
In data set [22] the test system is HCT-116. As to the kind of experiment: Upregulation of H3K4me1 expression in human HCT-116 cells at 0.125 to 0.5 uM. The following applies: dose 0.125-0.5 µM. Type of data set: functional, cell-based.
The subject of data set [23] is HCT-116. Put plainly: Induction of apoptosis in human HCT-116 cells assessed as necrotic cells at 0.125 uM by Annexin V-FITC/PI staining based assay (reference value: 1.05%). Type of data set: functional.
Data set [24] has as its system HCT-116. As to the kind of experiment: Induction of apoptosis in human HCT-116 cells assessed as viable cells at 0.25 uM by Annexin V-FITC/PI staining based assay (reference value: 96.76%). Type of data set: functional. The following applies: read-out: Activity.
Data set [25] deals with HCT-116. As to the kind of experiment: Induction of apoptosis in human HCT-116 cells assessed as late apoptotic cells at 0.125 uM by Annexin V-FITC/PI staining based assay (reference value: 0.37%). Type of data set: functional.
Data set [26] can be described thus: Toxicity in nude mouse xenografted with human HCT-116 cells assessed as change in body weight at 60 mg/kg, ip. The following applies: in vivo. Format: organism-based.
In data set [27] the test system is HCT-116. Put plainly: Induction of apoptosis in human HCT-116 cells assessed as early apoptotic cells at 0.25 uM by Annexin V-FITC/PI staining based assay (reference value: 1.82%). Type of data set: functional.
Data set [28] has as its system HCT-116. As to the kind of experiment: Antitumor activity against human HCT-116 cells xenografted in nude mouse assessed as tumor growth inhibition at 60 mg/kg, ip measured every 3 days. Type of data set: functional. Also noted: scale not given: the % may be the effect or the level left.
In data set [29] the test system is HCT-116. As to the kind of experiment: Induction of apoptosis in human HCT-116 cells assessed as early apoptotic cells at 0.125 uM by Annexin V-FITC/PI staining based assay (reference value: 1.82%). Type of data set: functional.

In brackets after ≈: the same amount, converted by molar mass.

Description for A549: Antiproliferative activity against human A549 cells by MTT assay
Description for MCF7: Antiproliferative activity against human MCF7 cells by MTT assay
Description for MDA-MB-231: Antiproliferative activity against human MDA-MB-231 cells by MTT assay

For `CC1COCC(C)N1S(=O)(=O)c1cccc(C(=O)N/N=C2\CCc3c(Cl)ccc(O)c32)c1` (centres undefined), the IC50 in the data set on MCF7 stood at 600 nM; in the data set with HCT-116 [1] it was 500 nM; in the data set with A2780, 500 nM; with DU-145, 9200 nM; in the data set with MDA-MB-231, 900 nM; in the data set with A549 it was 500 nM. The solubility in data set [2] worked out at 23.9 µg/mL (≈ 50 µM).

In the case of `O=C(N/N=C1\CCc2c(Cl)ccc(O)c21)c1cccc(S(=O)(=O)N2CCOCC2)c1`, the IC50 is 500 nM in the data set with MCF7; 500 nM with HCT-116 [1]; 2500 nM with DU-145; 2800 nM in the data set on MDA-MB-231; 1000 nM in the data set on A549. In data set [2], this molecule had a solubility of 29 µg/mL (≈ 64.5 µM).

Regarding `O=C(N/N=C1\CCc2c(O)ccc(O)c21)c1cccc(S(=O)(=O)N2CCOCC2)c1`, the IC50 came to 600 nM in the data set with MCF7; 900 nM in the data set on HCT-116 [1]; 1600 nM in the data set on A2780; 7600 nM in the data set with DU-145; 3200 nM in the data set on MDA-MB-231; 1400 nM in the data set with A549. In addition, the solubility in data set [2] stood at 46.9 µg/mL (≈ 109 µM).

Regarding `O=C(N/N=C1\CCc2cccc(O)c21)c1cccc(S(=O)(=O)N2CCOCC2)c1`, the 50% inhibitory concentration (IC50) with HCT-116 [1] turned out to be 400 nM; in the data set on A2780 it was 900 nM; in the data set on DU-145, 1900 nM; in the data set with MDA-MB-231, 2900 nM; with A549, 900 nM. In addition, the solubility in data set [2] was 27.9 µg/mL (≈ 67.2 µM).

For `C/C(=N\NC(=O)c1cccc(S(=O)(=O)N2CCN(C)CC2)c1)c1cc(Cl)ccc1O` [SECLIDEMSTAT], the Activity with HCT-116 [3] worked out at 63%; in the data set with HCT-116 [4], 1.87%; in the data set with HCT-116 [5] it was 4.56%; in the data set with HCT-116 [6], 2.16%; in the data set with HCT-116 [9], 0.97%; in the data set on HCT-116 [11], 3.22%. The Activity with HCT-116 [12] was found to be 1.32%; in the data set with HCT-116 [13], 5.44%; in the data set on HCT-116 [14] it was 2.48%; in the data set on HCT-116 [15], 0.64%. In addition, the half-maximal inhibitory concentration (IC50) worked out at 400 nM in the data set on MCF7; 600 nM with HCT-116 [1]; 2400 nM with A2780; 10500 nM in the data set with DU-145; 1100 nM with MDA-MB-231; 2700 nM with A549. The viability at 0.5 µM in the data set on HCT-116 [7] amounted to 92.1%. Also, in the data set on HCT-116 [8], the viability at 2 µM came to 91.7%. For the same molecule, the viability at 1 µM with HCT-116 [10] was found to be 93.5%. Also, the solubility in data set [2] is 35.7 µg/mL (≈ 79.2 µM).

For the molecule `CC1COCC(C)N1S(=O)(=O)c1cccc(C(=O)N/N=C2\CCc3c(O)ccc(O)c32)c1` (centres undefined), the Activity entry was “Dose-dependent-effect” in the data set on HCT-116 [16]; “Active; Slight Increase Observed” with HCT-116 [17]; 1.71% in the data set with HCT-116 [19]; “Active; At High Concentration Showed More Potent Activity Than Sp-2577” in the data set with HCT-116 [20]; 71% in the data set with HCT-116 [3]; 2.15% with HCT-116 [6]. The Activity was 1.28% in the data set with HCT-116 [21]; “Active; Slight Increase Observed” in the data set on HCT-116 [22]; 0.69% in the data set with HCT-116 [23]; 25.6% with HCT-116 [11]; 2.73% with HCT-116 [25]; “Non-toxic” in data set [26]. For the same molecule, the Activity came out at 17.28% with HCT-116 [27], 75% in the data set on HCT-116 [28], 10.47% in the data set on HCT-116 [29] and 2% in the data set on HCT-116 [14]. Besides, the viability at 0.125 µM in the data set on HCT-116 [18] came to 86.1%. The 50% inhibitory concentration (IC50) in the data set on MCF7 was 100 nM; in the data set with HCT-116 [1] it was 100 nM; in the data set with A2780, 900 nM; in the data set on DU-145 it was 2300 nM; with MDA-MB-231, 800 nM; with A549, 300 nM. In addition, in the data set on HCT-116 [7], the viability at 0.5 µM was found to be 70.2%. The viability at 0.25 µM with HCT-116 [24] is 79.7%. This molecule also had a solubility in [2] of 77.2 µg/mL (≈ 168 µM).

As for `CC1COCC(C)N1S(=O)(=O)c1cccc(C(=O)N/N=C2\CCc3cccc(O)c32)c1` (centres undefined), the IC50 worked out at 300 nM in the data set with MCF7; 700 nM with HCT-116 [1]; 700 nM in the data set with A2780; 11800 nM with DU-145; 1000 nM in the data set with MDA-MB-231; 300 nM with A549. Moreover, the solubility in [2] is 30.2 µg/mL (≈ 68.1 µM).
